Measurements from patent US7498406B2, “Substantially cell membrane impermeable compound and use thereof” (priority 1999, dated 2009).

Tested on: Human T cells (A3.01)
Assay: Tritiated GSAO in cytosol (membrane permeability)
Assay type: in vitro ADME
Experimental: Human T cells (A3.01) or adherent BAE cells were incubated with complete medium containing 50 μM GSAO and ˜100,000 counts per, minute of tritiated GSAO for 1 or 72 hours. Tritiated GSAO was prepared exactly as described for GSAO except that glycine-2-^3H-glutathione (NEN, Boston, Mass.) was used in place of cold glutathione. The cells were washed and lysed by two cycles of freezing and thawing. The cytosolic constituents were collected by differential centrifugation (Ausbel et al., 2000) and the tritiated GSAO was measured. Only 0.5% of the total tritiated GSAO was found in the T cell cytosol and 0.04% in the BAE cytosol after 1 hour. Moreover, only 4.5% of the GSAO penetrated the T cell membrane after 72 hours of culture.

NC(CCC(=O)NC(CSCC(=O)Nc1ccc([As]=O)cc1)C(=O)NCC(=O)O)C(=O)O (stereo not drawn) [GSAO, 4-(N-(S-glutathionylacetyl)amino)-phenylarsenoxide]
total tritiated GSAO found in the cytosol (50 μM GSAO, 1 hour): 0.5%
GSAO that penetrated the T cell membrane (50 μM GSAO, 72 hours of culture): 4.5%
crossing of the plasma membrane (A3.01 or BAE cells): does not cross the plasma membrane to any significant extent
